Reference: ChEMBL document CHEMBL6153056 (Eur J Med Chem, 2025)
The source made the active and inactive calls. The calls are words filed in the database; no cut-off is given here.

Tests used:
CDK9/cyclin T1 = CDK9/cyclin T1 (Homo sapiens, UniProt P50750); experiment: Inhibition of CDK9/cyclin T1 (unknown origin) pre-incubated for 20 min followed by 32P-ATP addition and measured after 2 hrs; type: protein-complex assay
DU-145 [1] = experiment: Antiproliferative activity against human DU-145 cells incubated for 72 hrs by MTT assay; type: functional, cell-based; settings: DU-145, 72 h
[2] = Stability of the compound in stimulated gastric fluid pH 1.2 at 5 uM incubated for 30 mins by HPLC-MS analysis; type: physicochemical; settings: simulated gastric fluid, read-out: Stability
DU-145 [3] = experiment: Upregulation of CDK9 expression in human DU-145 cells by Western blot analysis; type: functional, cell-based
[4] = Microsomal stability in human liver microsomes assessed as residual activity at 5 uM incubated for 15 min in presence of NADPH generating system by HPLC-MS analysis; type: ADME, Microsome; settings: read-out: Stability
[5] = Apparent permeability of compound across apical to basolateral side in human Caco-2 cells at 10 uM incubated for 2 hrs; type: ADME, cell-based
[6] = Stability in mouse serum at 5 uM measured after 360 mins by HPLC analysis; type: ADME, cell-free; settings: read-out: Stability
[7] = Half life in BALB/c mouse at 10 mg/kg, po measured upto 24 hrs by LC-MS/MS analysis; type: ADME, organism-based; settings: in vivo
PC-3 = experiment: Antiproliferative activity against human PC-3 cells incubated for 72 hrs by MTT assay; type: functional, cell-based; settings: PC-3, 72 h
[8] = Toxicity in BALB/c mouse assessed as change in alanine transferase (ALT) level in blood at 10 mg/kg, ip measured every 12 hrs for 16 days by biochemical automatic analyzer; type: organism-based; settings: in vivo, 384 h, time 16 day
[9] = Drug uptake in human DU-145 cells assessed as increase in green fluorescence in cytoplasm at 1 uM incubated for 2 hrs by live-cell confocal laser scanning microscopy based analysis; type: ADME; settings: du-145, 2 h
[10] = Drug uptake in human DU-145 cells assessed as increase in green fluorescence in nucleus at 1 uM incubated for 2 hrs by live-cell confocal laser scanning microscopy based analysis; type: ADME; settings: du-145, 2 h
[11] = Toxicity in BALB/c mouse assessed as change in blood urea nitrogen level in blood at 10 mg/kg, ip measured every 12 hrs for 16 days by biochemical automatic analyzer; type: organism-based; settings: in vivo, 384 h, time 16 day
MCF7 = experiment: Antiproliferative activity against human MCF7 cells incubated for 72 hrs by MTT assay; type: functional, cell-based; settings: MCF7, 72 h
[12] = Toxicity in BALB/c mouse assessed as change in blood urea nitrogen level in blood at 5 mg/kg, ip measured every 12 hrs for 16 days by biochemical automatic analyzer; type: organism-based; settings: in vivo, 384 h, time 16 day
[13] = Toxicity in BALB/c mouse xenografted with human DU-145 cells assessed as effect on body weight at 5 mg/kg, ip measured every 12 hrs for 16 days; type: organism-based; settings: in vivo, 384 h, time 16 day
[14] = Toxicity in BALB/c mouse assessed as change in creatinine level in blood at 5 mg/kg, ip measured every 12 hrs for 16 days by biochemical automatic analyzer; type: organism-based; settings: in vivo, 384 h, time 16 day
[15] = Cmax in BALB/c mouse at 10 mg/kg, ip measured upto 24 hrs by LC-MS/MS analysis; type: ADME, organism-based; settings: in vivo
[16] = Toxicity in BALB/c mouse xenografted with human DU-145 cells assessed as effect on body weight at 10 mg/kg, ip measured every 12 hrs for 16 days; type: organism-based; settings: in vivo, 384 h, time 16 day
T47D = experiment: Antiproliferative activity against human T47D cells incubated for 72 hrs by MTT assay; type: functional, cell-based
DU-145 [17] = experiment: Antitumor activity against human DU-145 cells xenografted in BALB/c mouse model assessed as reduction in tumor volume at 5 mg/kg, ip measured every 12 hrs for 16 days; type: functional, organism-based; settings: time 16.0 day
VCaP = experiment: Antiproliferative activity against human VCaP cells incubated for 72 hrs by MTT assay; type: functional, cell-based
LNCaP = experiment: Antiproliferative activity against human LNCaP cells incubated for 72 hrs by MTT assay; type: functional, cell-based
[18] = Half life in BALB/c mouse at 10 mg/kg, ip measured upto 24 hrs by LC-MS/MS analysis; type: ADME, organism-based; settings: in vivo
[19] = Toxicity in BALB/c mouse assessed as change in aspartate transaminase (AST) level in blood at 5 mg/kg, ip measure every 12 hrs for 16 days by biochemical automatic analyzer; type: organism-based; settings: in vivo, 384 h, time 16 day
[20] = Toxicity in BALB/c mouse assessed as change in aspartate transaminase (AST) level in blood at 10 mg/kg, ip measure every 12 hrs for 16 days by biochemical automatic analyzer; type: organism-based; settings: in vivo, 384 h, time 16 day
DU-145 [21] = experiment: Antitumor activity against human DU-145 cells xenografted in BALB/c mouse model assessed as reduction in tumor volume at 10 mg/kg, ip measured every 12 hrs for 16 days; type: functional, organism-based; settings: time 16.0 day
[22] = Toxicity in BALB/c mouse assessed as change in alanine transferase (ALT) level in blood at 5 mg/kg, ip measured every 12 hrs for 16 days by biochemical automatic analyzer; type: organism-based; settings: in vivo, 384 h, time 16 day
[23] = Toxicity in BALB/c mouse assessed as change in creatinine level in blood at 10 mg/kg, ip measured every 12 hrs for 16 days by biochemical automatic analyzer; type: organism-based; settings: in vivo, 384 h, time 16 day
[24] = Tmax in BALB/c mouse at 10 mg/kg, po measured upto 24 hrs by LC-MS/MS analysis; type: ADME, organism-based; settings: in vivo
[25] = Tmax in BALB/c mouse at 10 mg/kg, ip measured upto 24 hrs by LC-MS/MS analysis; type: ADME, organism-based; settings: in vivo
[26] = Half life in BALB/c mouse at 2 mg/kg, iv measured upto 24 hrs by LC-MS/MS analysis; type: ADME, organism-based; settings: in vivo
CWR22R = experiment: Antiproliferative activity against human 22Rv1 cells incubated for 72 hrs by MTT assay; type: functional, cell-based; settings: 22Rv1, 72 h
[27] = Cmax in BALB/c mouse at 10 mg/kg, po measured upto 24 hrs by LC-MS/MS analysis; type: ADME, organism-based; settings: in vivo

Sequence of CDK9/cyclin T1 (O60563 whole entry): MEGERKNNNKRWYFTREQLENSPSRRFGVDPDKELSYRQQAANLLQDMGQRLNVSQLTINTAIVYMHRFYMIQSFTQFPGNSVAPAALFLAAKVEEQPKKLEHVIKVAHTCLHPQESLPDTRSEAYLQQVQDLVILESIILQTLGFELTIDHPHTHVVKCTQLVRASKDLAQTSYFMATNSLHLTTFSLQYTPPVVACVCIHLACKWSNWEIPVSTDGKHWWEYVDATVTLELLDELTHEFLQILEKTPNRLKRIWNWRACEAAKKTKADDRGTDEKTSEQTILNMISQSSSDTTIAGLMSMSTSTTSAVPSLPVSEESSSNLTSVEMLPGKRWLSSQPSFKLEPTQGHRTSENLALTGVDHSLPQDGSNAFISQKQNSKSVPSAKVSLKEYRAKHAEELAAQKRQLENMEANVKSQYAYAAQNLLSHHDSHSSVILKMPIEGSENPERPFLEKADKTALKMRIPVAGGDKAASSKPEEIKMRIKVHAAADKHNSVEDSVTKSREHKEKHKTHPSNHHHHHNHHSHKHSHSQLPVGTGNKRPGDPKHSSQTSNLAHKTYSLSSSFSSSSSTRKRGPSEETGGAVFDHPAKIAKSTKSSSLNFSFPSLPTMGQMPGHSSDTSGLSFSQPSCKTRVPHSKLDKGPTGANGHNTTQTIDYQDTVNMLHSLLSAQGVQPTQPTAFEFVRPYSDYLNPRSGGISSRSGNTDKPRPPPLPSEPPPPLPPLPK
Sequence of CDK9/cyclin T1 (P50750 whole entry): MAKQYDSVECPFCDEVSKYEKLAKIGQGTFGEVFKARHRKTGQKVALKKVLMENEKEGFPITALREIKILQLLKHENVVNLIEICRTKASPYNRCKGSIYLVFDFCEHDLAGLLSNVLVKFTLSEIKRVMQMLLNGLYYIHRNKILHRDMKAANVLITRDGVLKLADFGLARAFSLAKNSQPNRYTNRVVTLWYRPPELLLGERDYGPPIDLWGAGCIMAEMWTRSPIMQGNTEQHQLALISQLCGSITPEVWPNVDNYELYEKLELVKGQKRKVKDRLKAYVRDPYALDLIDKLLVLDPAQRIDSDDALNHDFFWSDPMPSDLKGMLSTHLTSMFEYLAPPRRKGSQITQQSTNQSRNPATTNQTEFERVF

## CC(=O)N[C@H](C)C(=O)N[C@@H](C)C(=O)N[C@@H](CC(C)C)C(=O)N[C@@H](C)C(=O)N[C@H](C(=O)N[C@H](CC(C)C)C(=O)NCC(=O)N[C@@H](Cc1ccccc1)C(=O)N[C@H](C)C(=O)N[C@@H](CC(C)C)C(=O)N[C@@H](C)C(N)=O)[C@@H](C)O
CDK9/cyclin T1
  IC50: > 50 nM
DU-145 [1]
  IC50: > 50000 nM

## CC(=O)N[C@H](CC(N)=O)C(=O)N[C@@H](C)C(=O)N[C@@H](CC(C)C)C(=O)N[C@@H](CCC(N)=O)C(=O)N[C@H](C(=O)N[C@H](CC(C)C)C(=O)NCC(=O)N[C@@H](Cc1ccccc1)C(=O)N[C@H](C)C(=O)N[C@@H](CC(C)C)C(=O)N[C@H](C(N)=O)[C@@H](C)O)[C@@H](C)O
CDK9/cyclin T1
  IC50: 36.8 nM
DU-145 [1]
  IC50: 4050 nM

## CC(=O)N[C@@H](CC(N)=O)C(=O)N[C@@H](C)C(=O)N[C@@H](CC(C)C)C(=O)N[C@@H](CCC(N)=O)C(=O)N[C@H](C(=O)N[C@H](CC(C)C)C(=O)NCC(=O)N[C@@H](Cc1ccccc1)C(=O)N[C@H](CCC(N)=O)C(=O)N[C@@H](CC(C)C)C(=O)N[C@H](C(N)=O)[C@@H](C)O)[C@@H](C)O
CDK9/cyclin T1
  IC50: 87.4 nM
DU-145 [1]
  IC50: 9030 nM

## CC(=O)N[C@H](CC(C)C)C(=O)N[C@@H](C)C(=O)N[C@@H](CC(C)C)C(=O)N[C@@H](CCC(N)=O)C(=O)N[C@H](C(=O)N[C@H](CC(C)C)C(=O)NCC(=O)N[C@@H](Cc1ccccc1)C(=O)N[C@H](CCC(N)=O)C(=O)N[C@@H](CC(C)C)C(=O)N[C@H](C(N)=O)[C@@H](C)O)[C@@H](C)O
[2]
  remaining at 0.5 h, 5 µM: 94.2%
CDK9/cyclin T1
  IC50: 10.5 nM
DU-145 [3]
  Activity: Active
[4]
  remaining at 0.25 h, 5 µM: 95.6%
[5]
  Papp A→B at 2 h, 10 µM: 26.8 ×10⁻⁶ cm/s
DU-145 [1]
  IC50: 820 nM

## CC(=O)N[C@H](CC(C)C)C(=O)N[C@@H](C)C(=O)N[C@@H](CC(C)C)C(=O)N[C@@H](CCC(N)=O)C(=O)N[C@H](C(=O)N[C@H](CC(C)C)C(=O)NCC(=O)N[C@@H](Cc1ccccc1)C(=O)N[C@H](CCC(N)=O)C(=O)N[C@@H](CC(C)C)C(=O)N[C@H](C(N)=O)C(C)C)[C@@H](C)O
CDK9/cyclin T1
  IC50: 17.5 nM
DU-145 [1]
  IC50: 1670 nM

## CC(=O)N[C@H](CC(N)=O)C(=O)N[C@H](CCC(N)=O)C(=O)N[C@@H](CC(C)C)C(=O)NCC(=O)N[C@@H](Cc1ccccc1)C(=O)N[C@H](CC(C)C)C(=O)N[C@@H](CC(C)C)C(=O)N[C@@H](C)C(=O)N[C@H](C(=O)N[C@@H](CCC(N)=O)C(=O)N[C@H](C(N)=O)[C@@H](C)O)[C@@H](C)O
CDK9/cyclin T1
  IC50: > 50 nM
DU-145 [1]
  IC50: > 50000 nM

## Nc1n[nH]c(N)c1/N=N/c1ccc(O)cc1
DU-145 [1]
  IC50: 33100 nM

## CC(=O)N[C@H](CC(N)=O)C(=O)N[C@@H](C)C(=O)N[C@H](C(=O)N[C@@H](CCC(N)=O)C(=O)N[C@H](C(=O)N[C@H](CC(C)C)C(=O)NCC(=O)N[C@@H](Cc1ccccc1)C(=O)N[C@H](CCC(N)=O)C(=O)N[C@@H](CC(C)C)C(=O)N[C@H](C(N)=O)[C@@H](C)O)[C@@H](C)O)C(C)C
CDK9/cyclin T1
  IC50: 23.9 nM
DU-145 [1]
  IC50: 2520 nM

## CC(=O)N[C@H](CC(N)=O)C(=O)N[C@@H](C)C(=O)N[C@@H](CC(C)C)C(=O)N[C@@H](CCC(N)=O)C(=O)N[C@H](C(=O)N[C@H](CC(C)C)C(=O)NCC(=O)N[C@@H](Cc1ccccc1)C(=O)N[C@H](CCC(N)=O)C(=O)N[C@@H](CC(C)C)C(=O)N[C@H](C(N)=O)[C@@H](C)O)[C@@H](C)O
[6]
  remaining at 6 h, 5 µM: 87%
[7]
  half-life: 4.87 h
PC-3
  IC50: 720 nM
[2]
  remaining at 0.5 h, 5 µM: 96.7%
[8]
  Activity: Toxic
[9]
  Drug uptake: Active
[10]
  Drug uptake: Active
[11]
  Activity: Toxic
CDK9/cyclin T1
  IC50: 4.16 nM
MCF7
  IC50: 590 nM
[12]
  Activity: Toxic
[13]
  Activity: Toxic
DU-145 [3]
  Activity: Active
[14]
  Activity: Toxic
[4]
  remaining at 0.25 h, 5 µM: 98.2%
[15]
  Cmax: 2690 ng/mL
[16]
  Activity: Toxic
T47D
  IC50: 460 nM
DU-145 [17]
  Activity: Active
VCaP
  IC50: 810 nM
LNCaP
  IC50: 410 nM
[18]
  half-life: 4.62 h
[19]
  Activity: Toxic
[20]
  Activity: Toxic
[5]
  Papp A→B at 2 h, 10 µM: 29.8 ×10⁻⁶ cm/s
DU-145 [21]
  Activity: Active; Compound Showed More Effect
[22]
  Activity: Toxic
[23]
  Activity: Toxic
[24]
  Tmax: 0.41 h
[25]
  Tmax: 0.49 h
[26]
  half-life: 5.13 h
DU-145 [1]
  IC50: 350 nM
CWR22R
  IC50: 950 nM
[27]
  Cmax: 3200 ng/mL
